Data: US20050171084A1, “Methods of treatment with lxr modulators” (priority 2002, published 2005)

Experiments:
[1] = molecular target: T1, LXRβ protein (Homo sapiens, UniProt P55055); conditions: 1 μM; over a background reading of 10000 fluorescence units; cited from earlier work
T1 sequence (P55055 1-460): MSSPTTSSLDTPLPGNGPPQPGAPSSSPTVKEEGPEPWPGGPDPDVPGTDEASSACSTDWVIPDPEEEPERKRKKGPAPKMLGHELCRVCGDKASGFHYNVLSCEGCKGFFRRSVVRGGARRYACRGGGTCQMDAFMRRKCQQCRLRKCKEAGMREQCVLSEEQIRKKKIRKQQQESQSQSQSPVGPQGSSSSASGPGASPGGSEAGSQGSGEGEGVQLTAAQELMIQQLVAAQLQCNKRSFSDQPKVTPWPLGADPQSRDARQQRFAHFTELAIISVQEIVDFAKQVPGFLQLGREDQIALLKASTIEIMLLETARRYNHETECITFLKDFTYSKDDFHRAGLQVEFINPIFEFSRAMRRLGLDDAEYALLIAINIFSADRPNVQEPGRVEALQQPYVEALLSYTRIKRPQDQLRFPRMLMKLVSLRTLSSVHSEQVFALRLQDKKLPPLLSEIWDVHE

[2] = tested on: Hippocampal neurons; assay: Neurite outgrowth in hippocampal neurons; assay type: cell-based, rat; conditions: HC neurons, 48 hours, SEM in parentheses
Protocol: Hippocampal neurons: The hippocampi of gestational day 18 rat embryos were dissected out, incubated in trypsin (0.08%, 30 min at 37° C.) and dissociated mechanically (16). Hippocampal cells were resuspended in neurobasal medium supplemented with B27, anti-oxidants, 1 mM glutamine, 25 μM glutamate, 1 mM pyruvate. For outgrowth assays, cells were plated at a density of 3000 cells/well into 96 well dishes that had previously been coated with poly-D-lysine followed by 10% FCS and cultured for 48 hours.
The test compound was solubilised in DMSO and added to culture medium at time of cell plating at a dilution of 1:1000. Vehicle only (1:1000) was added to culture medium of untreated controls. Cells were fixed with 4% paraformaldehyde for 1 hour on ice, washed with PBS and stained using Coomassie. Assays were quantified using a KS300 image analysis system (Imaging Associates, UK). For each cell measured, the length from the edge of the cell to the end of the longest neurite was measured for 100 cells/well for each treatment in triplicate. All data are means and SEM pooled from three independent experiments. Results are expressed as a percentage of the length of neurites of cells treated with vehicle alone.

[3] = tested on: rat pheochromocytoma cells; conditions: Schmidt, et al. (19); cited from earlier work

| SMILES | fluorescence reading [1] [fluorescence units] | length of longest neurite, percentage of cells treated with vehicle alone ([2]; 0.3 μm test compound) | length of longest neurite, percentage of cells treated with vehicle alone ([2]; 1.0 μm test compound) | length of longest neurite, percentage of cells treated with vehicle alone ([2]; 3.0 μm test compound) | length of longest neurite, percentage of cells treated with vehicle alone ([2]; 10.0 μm test compound) | neuronal differentiation [3] |
| --- | --- | --- | --- | --- | --- | --- |
| C[C@H](CC[C@@H]1OC1(C)C)[C@H]1CC[C@H]2[C@@H]3CC=C4C[C@@H](O)CC[C@]4(C)[C@H]3CC[C@]12C [24(S), 25-epoxycholesterol] | 20000 | – | – | – | – | – |
| CC(C)CC[C@@H](O)[C@@H](C)[C@H]1CC[C@H]2[C@@H]3CC=C4C[C@@H](O)CC[C@]4(C)[C@H]3CC[C@]12C [22(R) hydroxychol., 22(R)-hydroxycholesterol, reference compound] | – | 115.9 (6.02) % | 116 (7.45) % | 129.9 (4.12) % | 127.9 (6.18) % | induced neuronal differentiation |
| CCCCCCCCCCCCCCOc1ccc(C(=O)O)o1 [5-tetradecyloxy-2-furancarboxylic acid] | – | – | – | – | – | induced neuronal differentiation |
